This assay deals with CD2F1 mice, L1210 leukemia ip, survival T/C. The experiment in a line: NCI In Vivo Anticancer Drug Screen. Data for tumor model L1210 Leukemia (intraperitoneal) in CD2F1 (CDF1) mice. The following applies: higher = longer survival. The method in brief:
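Transplantable tumor in mice; compound-treated vs vehicle-treated groups. Read-out = treated/control ratio of the measured endpoint.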

Setting [1] is: endpoint: mean survival time, dose: 100.0 mg/kg/injection, schedule: Q01DX009 (ip), vehicle: saline with Tween-80.
Setting [2] is: endpoint: mean survival time, dose: 100.0 mg/kg/injection, schedule: Q04DX003 (ip), vehicle: saline with Tween-80.
Setting [3] is: endpoint: mean survival time, dose: 200.0 mg/kg/injection, schedule: Q01DX009 (ip), vehicle: saline with Tween-80.
The mark [4] stands for this setting: endpoint: mean survival time, dose: 200.0 mg/kg/injection, schedule: Q04DX003 (ip), vehicle: saline with Tween-80.
The mark [5] stands for this setting: endpoint: mean survival time, dose: 400.0 mg/kg/injection, schedule: Q01DX009 (ip), vehicle: saline with Tween-80.
Where [6] appears, read: endpoint: mean survival time, dose: 400.0 mg/kg/injection, schedule: Q04DX003 (ip), vehicle: saline with Tween-80.
The mark [7] stands for this setting: endpoint: mean survival time, dose: 100.0 mg/kg/injection, schedule: Q01DX009 (ip), vehicle: saline.
Setting [8] is: endpoint: mean survival time, dose: 200.0 mg/kg/injection, schedule: Q01DX009 (ip), vehicle: saline.
[9] abbreviates: endpoint: mean survival time, dose: 100.0 mg/kg/injection, schedule: Q01DX001 (ip), vehicle: saline.
[10] abbreviates: endpoint: mean survival time, dose: 100.0 mg/kg/injection, schedule: Q01DX001 (ip), vehicle: Klucel (hydroxypropylcellulose) (HPC).
The mark [11] stands for this setting: endpoint: mean survival time, dose: 200.0 mg/kg/injection, schedule: Q01DX001 (ip), vehicle: Klucel (hydroxypropylcellulose) (HPC).
[12] abbreviates: endpoint: mean survival time, dose: 100.0 mg/kg/injection, schedule: Q01DX001 (ip), vehicle: saline with Tween-80.
Where [13] appears, read: endpoint: mean survival time, dose: 200.0 mg/kg/injection, schedule: Q01DX001 (ip), vehicle: saline with Tween-80.
[14] abbreviates: endpoint: mean survival time, dose: 400.0 mg/kg/injection, schedule: Q01DX001 (ip), vehicle: saline with Tween-80.
The mark [15] stands for this setting: endpoint: mean survival time, dose: 50.0 mg/kg/injection, schedule: Q04DX002 (ip), vehicle: saline.
The mark [16] stands for this setting: endpoint: mean survival time, dose: 100.0 mg/kg/injection, schedule: Q04DX002 (ip), vehicle: saline.
The mark [17] stands for this setting: endpoint: mean survival time, dose: 12.5 mg/kg/injection, schedule: Q04DX002 (ip), vehicle: saline.
Where [18] appears, read: endpoint: mean survival time, dose: 25.0 mg/kg/injection, schedule: Q04DX002 (ip), vehicle: saline.

Values joined by “and” are separate entries in the source; they are usually repeats but may differ in a detail not shown here. Equal entries are not always repeated. Inconclusive results and toxic doses are left out.

Consider `C=C1C(=O)O[C@H]2C[C@@H](C)[C@@H]3[C@@H](O)C[C@@H](O)[C@@]3(C)C[C@H]12`, for which the T/C is 100 % of control under setting [1]; 102 % of control under setting [2]; 94 % of control under setting [3]; 96 % of control under setting [4]; 100 % of control under setting [5]; 103 % of control under setting [6].

In the case of `NC(=O)c1[nH]cnc1NN=NCCF`, the T/C (endpoint: mean survival time, dose: 25.0 mg/kg/injection, schedule: Q01DX001 (ip), vehicle: Klucel (hydroxypropylcellulose) (HPC)) was 320 % of control.

As to `C#CCC(O)CC` (centres undefined), the T/C is, setting by setting: (endpoint: mean survival time, dose: 50.0 mg/kg/injection, schedule: Q01DX009 (ip), vehicle: saline) 103 % of control; under setting [7], 107 % of control; under setting [8], 103 % of control.

With `Clc1ccc2c(CBr)ccnc2c1`, the T/C by setting is: (endpoint: mean survival time, dose: 50.0 mg/kg/injection, schedule: Q04DX003 (ip), vehicle: other) 110 % of control; (endpoint: mean survival time, dose: 100.0 mg/kg/injection, schedule: Q04DX003 (ip), vehicle: other) 112 % of control.

On to `CN(C)/N=N\c1ncn(C2OC(CO)C(O)C2O)c1C(N)=O` (centres undefined), for which, for the setting “endpoint: mean survival time, dose: 100.0 mg/kg/injection, schedule: Q01DX005 (ip), vehicle: saline”, the T/C is 123 % of control.

As to `CS(=O)(=O)OCCN(CCOS(C)(=O)=O)c1ccc(N=O)cc1`, the T/C by setting is: (endpoint: mean survival time, dose: 0.25 mg/kg/injection, schedule: Q01DX009 (ip), vehicle: saline) 101 % of control; (endpoint: mean survival time, dose: 0.5 mg/kg/injection, schedule: Q01DX001 (ip), vehicle: saline) 113 % of control; (endpoint: mean survival time, dose: 0.5 mg/kg/injection, schedule: Q01DX005 (ip), vehicle: saline) 103 % of control; (endpoint: mean survival time, dose: 0.5 mg/kg/injection, schedule: Q01DX009 (ip), vehicle: saline) 91 % of control; (endpoint: mean survival time, dose: 1.0 mg/kg/injection, schedule: Q01DX005 (ip), vehicle: saline) 114 % of control; (endpoint: mean survival time, dose: 1.0 mg/kg/injection, schedule: Q04DX003 (ip), vehicle: saline) 97 % of control. The T/C (endpoint: mean survival time, dose: 2.0 mg/kg/injection, schedule: Q01DX001 (ip), vehicle: saline) was 114 % of control; the T/C (endpoint: mean survival time, dose: 2.0 mg/kg/injection, schedule: Q04DX003 (ip), vehicle: saline) is 97 % of control; the T/C (endpoint: mean survival time, dose: 7.5 micrograms/kg/injection, schedule: Q03HX024 (ip), vehicle: saline) is 234 % of control; the T/C (endpoint: mean survival time, dose: 31.3 micrograms/kg/injection, schedule: Q03HX024 (ip), vehicle: saline) was 115 % of control.

`CCCN(CCC)S(=O)(=O)c1ccc(NC(=O)OC2CCCCCCC2)cc1`: the T/C reads like this: under setting [9], 92 % of control; (endpoint: mean survival time, dose: 200.0 mg/kg/injection, schedule: Q01DX001 (ip), vehicle: saline) 98 % of control; (endpoint: mean survival time, dose: 400.0 mg/kg/injection, schedule: Q01DX001 (ip), vehicle: saline) 101 % of control.

On to `COC1OC(COC(c2ccccc2)(c2ccccc2)c2ccccc2)C(OC)C(OC)C1NC(C)=O` (centres undefined), for which the T/C reads like this: under setting [10], 91 % of control; under setting [11], 96 % of control; (endpoint: mean survival time, dose: 400.0 mg/kg/injection, schedule: Q01DX001 (ip), vehicle: Klucel (hydroxypropylcellulose) (HPC)) 96 % of control.

Turning to `COC(=O)COc1ccccc1Cl`, the T/C is 102 % of control under setting [12], 102 % of control under setting [13] and 104 % of control under setting [14].

Turning to `[Br][Pt+2][Br].[NH-]c1ccccc1F.[NH-]c1ccccc1F`, the T/C runs as follows: (endpoint: mean survival time, dose: 3.13 mg/kg/injection, schedule: Q04DX003 (ip), vehicle: distilled water + Tween-80) 104 % of control; (endpoint: mean survival time, dose: 6.25 mg/kg/injection, schedule: Q04DX003 (ip), vehicle: distilled water + Tween-80) 104 % of control; (endpoint: mean survival time, dose: 12.5 mg/kg/injection, schedule: Q04DX003 (ip), vehicle: distilled water + Tween-80) 108 % of control; (endpoint: mean survival time, dose: 25.0 mg/kg/injection, schedule: Q04DX003 (ip), vehicle: distilled water + Tween-80) 108 % of control; (endpoint: mean survival time, dose: 50.0 mg/kg/injection, schedule: Q04DX003 (ip), vehicle: distilled water + Tween-80) 101 % of control; (endpoint: mean survival time, dose: 100.0 mg/kg/injection, schedule: Q04DX003 (ip), vehicle: distilled water + Tween-80) 93 % of control.

On to `CCOC(=O)Nc1cc(N)c2ncc(-c3ccc(Cl)cc3)nc2n1`, for which the T/C was 91 % of control under setting [2], 91 % of control under setting [4] and 95 % of control under setting [6].

On to `OCCN1CCNC1=S`, for which the T/C runs as follows: under setting [7], 97 % of control; (endpoint: mean survival time, dose: 100.0 mg/kg/injection, schedule: Q04DX003 (ip), vehicle: saline) 97 % of control; under setting [8], 97 % of control; (endpoint: mean survival time, dose: 200.0 mg/kg/injection, schedule: Q04DX003 (ip), vehicle: saline) 92 % of control; (endpoint: mean survival time, dose: 400.0 mg/kg/injection, schedule: Q01DX009 (ip), vehicle: saline) 102 % of control; (endpoint: mean survival time, dose: 400.0 mg/kg/injection, schedule: Q04DX003 (ip), vehicle: saline) 98 % of control.

Consider `O=C(O)C1CCOC1=O` (centres undefined), for which the T/C under setting [15] is 107 % of control; the T/C under setting [16] was 98 % of control; the T/C (endpoint: mean survival time, dose: 200.0 mg/kg/injection, schedule: Q04DX002 (ip), vehicle: saline) is 98 % of control.

As to `Nc1nc(N)c2cc(CNc3ccc(C(=O)NC(C(=O)O)C(=O)O)cc3)ccc2n1`, the T/C reads like this: (endpoint: mean survival time, dose: 0.8 mg/kg/injection, schedule: Q01DX009 (ip), vehicle: saline) 102 % of control; (endpoint: mean survival time, dose: 1.6 mg/kg/injection, schedule: Q01DX009 (ip), vehicle: saline) 86 % of control.

Turning to `CSc1nc(N)c(C#N)cc1C#N`, the T/C by setting is: under setting [12], 100 % of control; under setting [13], 89 % of control; under setting [14], 89 % of control.

Take `COc1cc(Cl)ccc1NC(=O)Oc1c(OC)cccc1OC`: the T/C was 100 % of control under setting [1], 106 % of control under setting [3] and 103 % of control under setting [5].

For `CSC(SC)=C1C(=O)NC(=O)NC1=O`, the T/C (endpoint: median survival time, dose: 3.12 mg/kg/injection, schedule: Q01DX009 (ip), vehicle: saline) is 101 % of control; the T/C (endpoint: median survival time, dose: 6.25 mg/kg/injection, schedule: Q01DX009 (ip), vehicle: saline) was 112 % of control; the T/C (endpoint: median survival time, dose: 12.5 mg/kg/injection, schedule: Q01DX009 (ip), vehicle: saline) is 109 % of control; the T/C (endpoint: median survival time, dose: 25.0 mg/kg/injection, schedule: Q01DX009 (ip), vehicle: saline) is 109 % of control; the T/C (endpoint: median survival time, dose: 50.0 mg/kg/injection, schedule: Q01DX009 (ip), vehicle: saline) was 116 % of control.

In the case of `COC1=CCC2=C(C1)C1(C)CCCC(C)(CO)C1CC2` (centres undefined), the T/C by setting is: under setting [2], 94 % of control; under setting [4], 92 % of control; under setting [6], 97 % of control.

Consider `CC1(C[N+](C)(C)C)COC(C)(C)O1` (centres undefined), for which the T/C is 95 % of control under setting [17]; 98 % of control (endpoint: mean survival time, dose: 25.0 mg/kg/injection, schedule: Q01DX001 (ip), vehicle: saline); 95 % of control under setting [18]; 96 % of control (endpoint: mean survival time, dose: 50.0 mg/kg/injection, schedule: Q01DX001 (ip), vehicle: saline); 106 % of control under setting [15]; 94 % of control under setting [12]. For the same compound, the T/C under setting [9] is 103 % of control and the T/C under setting [16] is 95 % of control.

For `NC(CCl)=NCC1C2CC3CC(C2)CC1C3` (centres undefined), the T/C is, setting by setting: (endpoint: mean survival time, dose: 6.25 mg/kg/injection, schedule: Q04DX002 (ip), vehicle: saline) 96 % of control; under setting [17], 93 % of control; under setting [18], 90 % of control; under setting [15], 96 % of control; under setting [10], 107 % of control; under setting [11], 98 % of control.

As for `Cc1c(NS(=O)(=O)c2ccccc2)c(C)c(NS(=O)(=O)c2ccccc2)c(C)c1NS(=O)(=O)c1ccccc1`, the T/C was 92 % of control (endpoint: mean survival time, dose: 50.0 mg/kg/injection, schedule: Q04DX003 (ip), vehicle: saline with Tween-80); 88 % of control and 93 % of control under setting [2]; 93 % of control and 94 % of control under setting [4]; 96 % of control under setting [6].

(Values after PubChem BioAssay AID256 (DTP/NCI, 2004).)
